Source: ChEMBL document CHEMBL3046407, “Toxicity of monoterpenes against larvae and adults of Colorado potato beetle, Leptinotarsa decemlineata Say (Coleoptera: Chrysomelidae)” (2007)

Columns and labels:
Format in all cases: functional
[1] = tested on: Leptinotarsa decemlineata; test: Insecticidal activity against adult Leptinotarsa decemlineata infested potato leaves assessed as mortality at 10 ul after 48 hr relative to control
Sitophilus granarius = test: Insecticidal activity against Sitophilus granarius (granary weevil) assessed as mortality
[2] = tested on: Leptinotarsa decemlineata; test: Insecticidal activity against first-instar larval stage of Leptinotarsa decemlineata infested potato leaves assessed as mortality at 20 ul after 12 hr relative to control
[3] = tested on: Leptinotarsa decemlineata; test: Insecticidal activity against first-instar larval stage of Leptinotarsa decemlineata infested potato leaves assessed as mortality at 10 ul after 96 hr relative to control
[4] = tested on: Leptinotarsa decemlineata; test: Insecticidal activity against first-instar larval stage of Leptinotarsa decemlineata infested potato leaves assessed as mortality at 20 ul after 96 hr relative to control
[5] = tested on: Leptinotarsa decemlineata; test: Insecticidal activity against second-instar larval stage of Leptinotarsa decemlineata infested potato leaves assessed as mortality at 20 ul after 24 hr (reference value: 3.3 +/- 3.3%)
[6] = tested on: Leptinotarsa decemlineata; test: Insecticidal activity against adult Leptinotarsa decemlineata infested potato leaves assessed as mortality at 10 ul after 24 hr relative to control
[7] = tested on: Leptinotarsa decemlineata; test: Insecticidal activity against adult Leptinotarsa decemlineata infested potato leaves assessed as mortality at 20 ul after 12 hr relative to control
[8] = tested on: Leptinotarsa decemlineata; test: Insecticidal activity against second-instar larval stage of Leptinotarsa decemlineata infested potato leaves assessed as mortality at 20 ul after 12 hr relative to control
[9] = tested on: Leptinotarsa decemlineata; test: Insecticidal activity against second-instar larval stage of Leptinotarsa decemlineata infested potato leaves assessed as mortality at 10 ul after 96 hr (reference value: 3.3 +/- 3.3%)
[10] = tested on: Leptinotarsa decemlineata; test: Insecticidal activity against first-instar larval stage of Leptinotarsa decemlineata infested potato leaves assessed as mortality at 20 ul after 48 hr relative to control
[11] = tested on: Leptinotarsa decemlineata; test: Insecticidal activity against third-instar larval stage of Leptinotarsa decemlineata infested potato leaves assessed as mortality at 20 ul after 24 hr relative to control
[12] = tested on: Leptinotarsa decemlineata; test: Insecticidal activity against second-instar larval stage of Leptinotarsa decemlineata infested potato leaves assessed as mortality at 20 ul after 96 hr (reference value: 3.3 +/- 3.3%)
[13] = tested on: Leptinotarsa decemlineata; test: Insecticidal activity against second-instar larval stage of Leptinotarsa decemlineata infested potato leaves assessed as mortality at 10 ul after 48 hr (reference value: 3.3 +/- 3.3%)
[14] = tested on: Leptinotarsa decemlineata; test: Insecticidal activity against second-instar larval stage of Leptinotarsa decemlineata infested potato leaves assessed as mortality at 10 ul after 24 hr (reference value: 3.3 +/- 3.3%)
[15] = tested on: Leptinotarsa decemlineata; test: Insecticidal activity against adult Leptinotarsa decemlineata infested potato leaves assessed as mortality at 20 ul after 24 hr relative to control
[16] = tested on: Leptinotarsa decemlineata; test: Insecticidal activity against third-instar larval stage of Leptinotarsa decemlineata infested potato leaves assessed as mortality at 20 ul after 12 hr relative to control
[17] = tested on: Leptinotarsa decemlineata; test: Insecticidal activity against second-instar larval stage of Leptinotarsa decemlineata infested potato leaves assessed as mortality at 20 ul after 48 hr (reference value: 3.3 +/- 3.3%)
[18] = tested on: Leptinotarsa decemlineata; test: Insecticidal activity against third-instar larval stage of Leptinotarsa decemlineata infested potato leaves assessed as mortality at 10 ul after 48 hr (reference value: 3.3 +/- 3.3%)
[19] = tested on: Leptinotarsa decemlineata; test: Insecticidal activity against adult Leptinotarsa decemlineata infested potato leaves assessed as mortality at 20 ul after 48 hr relative to control
[20] = tested on: Leptinotarsa decemlineata; test: Insecticidal activity against adult Leptinotarsa decemlineata infested potato leaves assessed as mortality at 10 ul after 12 hr relative to control
[21] = tested on: Leptinotarsa decemlineata; test: Insecticidal activity against third-instar larval stage of Leptinotarsa decemlineata infested potato leaves assessed as mortality at 10 ul after 12 hr relative to control
[22] = tested on: Leptinotarsa decemlineata; test: Insecticidal activity against first-instar larval stage of Leptinotarsa decemlineata infested potato leaves assessed as mortality at 10 ul after 24 hr relative to control
[23] = tested on: Leptinotarsa decemlineata; test: Insecticidal activity against third-instar larval stage of Leptinotarsa decemlineata infested potato leaves assessed as mortality at 20 ul after 96 hr (reference value: 3.3 +/- 3.3%)
[24] = tested on: Leptinotarsa decemlineata; test: Insecticidal activity against adult Leptinotarsa decemlineata infested potato leaves assessed as mortality at 20 ul after 96 hr relative to control
[25] = tested on: Leptinotarsa decemlineata; test: Insecticidal activity against first-instar larval stage of Leptinotarsa decemlineata infested potato leaves assessed as mortality at 10 ul after 12 hr relative to control
[26] = tested on: Leptinotarsa decemlineata; test: Insecticidal activity against first-instar larval stage of Leptinotarsa decemlineata infested potato leaves assessed as mortality at 20 ul after 24 hr relative to control
[27] = tested on: Leptinotarsa decemlineata; test: Insecticidal activity against third-instar larval stage of Leptinotarsa decemlineata infested potato leaves assessed as mortality at 10 ul after 24 hr relative to control
[28] = tested on: Leptinotarsa decemlineata; test: Insecticidal activity against second-instar larval stage of Leptinotarsa decemlineata infested potato leaves assessed as mortality at 10 ul after 12 hr relative to control
[29] = tested on: Leptinotarsa decemlineata; test: Insecticidal activity against third-instar larval stage of Leptinotarsa decemlineata infested potato leaves assessed as mortality at 20 ul after 48 hr (reference value: 3.3 +/- 3.3%)
[30] = tested on: Leptinotarsa decemlineata; test: Insecticidal activity against adult Leptinotarsa decemlineata infested potato leaves assessed as mortality at 10 ul after 96 hr relative to control
[31] = tested on: Leptinotarsa decemlineata; test: Insecticidal activity against first-instar larval stage of Leptinotarsa decemlineata infested potato leaves assessed as mortality at 10 ul after 48 hr relative to control
[32] = tested on: Leptinotarsa decemlineata; test: Insecticidal activity against third-instar larval stage of Leptinotarsa decemlineata infested potato leaves assessed as mortality at 10 ul after 96 hr (reference value: 3.3 +/- 3.3%)

Structure (SMILES) | mortality [1] [%] | mortality (Sitophilus granarius) [%] | mortality [2] [%] | mortality [3] [%] | mortality [4] [%] | mortality [5] [%] | mortality [6] [%] | mortality [7] [%] | mortality [8] [%] | mortality [9] [%] | mortality [10] [%] | mortality [11] [%] | mortality [12] [%] | mortality [13] [%] | mortality [14] [%] | mortality [15] [%] | mortality [16] [%] | mortality [17] [%] | mortality [18] [%] | mortality [19] [%] | also measured
C=C(C)[C@H]1CC=C(C)CC1 [D-LIMONENE] | 100 | 90 | 43.3 | 90 | 90 | 80 | 100 | 90 | 76.7 | 93.3 | 80 | 60 | 90 | 90 | 86.7 | 100 | 33.3 | 80 | 50 | 100 | mortality [20]: 83.3%; mortality [21]: 0%; mortality [22]: 50%; mortality [23]: 70%; mortality [24]: 100%; mortality [25]: 23.3%; mortality [26]: 76.7%; mortality [27]: 46.7%; mortality [28]: 53.3%; mortality [29]: 63.3%; mortality [30]: 100%; mortality [31]: 83.3%; mortality [32]: 53.3%
CC12CCC(CC1)C(C)(C)O2 [EUCALYPTOL] | 100 | 90 | 46.7 | 100 | 100 | 100 | 100 | 83.3 | 83.3 | 100 | 100 | 73.3 | 100 | 100 | 100 | 100 | 56.7 | 100 | 63.3 | 100 | mortality [20]: 100%; mortality [21]: 40%; mortality [22]: 66.7%; mortality [23]: 86.7%; mortality [24]: 100%; mortality [25]: 26.7%; mortality [26]: 100%; mortality [27]: 50%; mortality [28]: 43.3%; mortality [29]: 80%; mortality [30]: 100%; mortality [31]: 83.3%; mortality [32]: 76.7%
